Source: patent US20250327034A1, “CELL CULTURE MEDIUM” (Ajinomoto Co., Inc., priority 2022, published 2025)

Test system: CHO cell
Assay: CHO cell fed-batch culture (ambr15) with high L-cysteine feed: antibody yield (Example 6)
Format: cell-based, Chinese hamster
Settings: CHO cells, 11 mM, 18 mM and 23-24 mM equivalent L-cysteine feed sections
Experimental: Basal media were prepared by adding a final concentration of 4 mM L-Glutamine (Thermo Fisher Scientific: 25030081) to media that were designed on the basis of CELLIST™ Basal media (AJINOMOTO CO., INC.: BASAL10).
Feed Media A were prepared on the basis of the commercially available CELLIST™ Feed media (AJINOMOTO CO., INC.: FEED 2). Feed media A containing a final concentration of 11 or 18 mM L-cysteine and 60 g/L glucose were prepared to have a pH of 6.7-6.9 according to the procedures described in the product instructions for FEED 2.
A 110 mM L-cysteine solution (pH 11.3) was prepared.
Using the prepared basal media, CHO suspensions adjusted to 7×10^5 celllls/mL were cultured for 14 days using the ambr15 cell culture system (Sartorius AG). All of the experimental groups were performed with n=2. […] The antibody yields on day 14 in these conditioned sections were measured using Cedex Bio HT (Roche Diagnostics K.K.)

N[C@@H](CS)C(=O)O [L-cysteine]
Antibody yield on day 14: improves the antibody yield
